Among the data in patent US9364479B2, “Use of a receptor-type kinase modulator for treating polycystic kidney disease” (SYMPHONY EVOLUTION, INC., priority 2010, dated 2016) are IC50, inhibition and protein bound values, retold here.

The target in one data set is KDR (Homo sapiens, UniProt P35968). Briefly: Cellular autophosphorylation assay. It counts as cell-based.
For the next data set, the target named is T1, Histamine, H1 (Homo sapiens, UniProt P35367).
T1 construct: NovaScreen
Briefly: NovaScreen assay. It counts as binding. The settings on record: read-out: Inhibition, 10 μM XL-647.

The target of the next data set is T2, Plk1 (Homo sapiens, UniProt P53350).
T2 construct: His6
T2 sequence (P53350 whole entry): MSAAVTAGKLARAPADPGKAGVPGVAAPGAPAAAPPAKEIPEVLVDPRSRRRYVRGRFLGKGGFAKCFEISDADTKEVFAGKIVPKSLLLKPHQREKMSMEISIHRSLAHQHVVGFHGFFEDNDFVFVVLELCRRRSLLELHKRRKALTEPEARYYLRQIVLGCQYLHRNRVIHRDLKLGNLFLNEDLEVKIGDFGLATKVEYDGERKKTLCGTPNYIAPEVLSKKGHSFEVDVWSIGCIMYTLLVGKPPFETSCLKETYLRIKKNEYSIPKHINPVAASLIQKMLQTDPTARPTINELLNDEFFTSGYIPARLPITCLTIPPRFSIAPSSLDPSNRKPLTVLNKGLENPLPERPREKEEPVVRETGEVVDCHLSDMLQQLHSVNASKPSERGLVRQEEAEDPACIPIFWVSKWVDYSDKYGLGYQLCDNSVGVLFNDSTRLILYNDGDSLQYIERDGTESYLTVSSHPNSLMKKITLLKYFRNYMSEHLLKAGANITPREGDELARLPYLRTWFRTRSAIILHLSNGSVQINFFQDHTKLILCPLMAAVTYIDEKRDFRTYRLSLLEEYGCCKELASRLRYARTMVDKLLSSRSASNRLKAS
The data set is described as follows: Radiometric kinase assay. It counts as biochemical. Here is the method: (§1) Further screening was performed using the biochemical assay methods of Example 2. Additional description of the components and concentrations are summarized in Table 8, Table 9, and Table 10, below.

A further data set deals with T3, PKC-ε (Homo sapiens, UniProt Q02156).
T3 construct: purchased PanVera
T3 sequence (Q02156 whole entry): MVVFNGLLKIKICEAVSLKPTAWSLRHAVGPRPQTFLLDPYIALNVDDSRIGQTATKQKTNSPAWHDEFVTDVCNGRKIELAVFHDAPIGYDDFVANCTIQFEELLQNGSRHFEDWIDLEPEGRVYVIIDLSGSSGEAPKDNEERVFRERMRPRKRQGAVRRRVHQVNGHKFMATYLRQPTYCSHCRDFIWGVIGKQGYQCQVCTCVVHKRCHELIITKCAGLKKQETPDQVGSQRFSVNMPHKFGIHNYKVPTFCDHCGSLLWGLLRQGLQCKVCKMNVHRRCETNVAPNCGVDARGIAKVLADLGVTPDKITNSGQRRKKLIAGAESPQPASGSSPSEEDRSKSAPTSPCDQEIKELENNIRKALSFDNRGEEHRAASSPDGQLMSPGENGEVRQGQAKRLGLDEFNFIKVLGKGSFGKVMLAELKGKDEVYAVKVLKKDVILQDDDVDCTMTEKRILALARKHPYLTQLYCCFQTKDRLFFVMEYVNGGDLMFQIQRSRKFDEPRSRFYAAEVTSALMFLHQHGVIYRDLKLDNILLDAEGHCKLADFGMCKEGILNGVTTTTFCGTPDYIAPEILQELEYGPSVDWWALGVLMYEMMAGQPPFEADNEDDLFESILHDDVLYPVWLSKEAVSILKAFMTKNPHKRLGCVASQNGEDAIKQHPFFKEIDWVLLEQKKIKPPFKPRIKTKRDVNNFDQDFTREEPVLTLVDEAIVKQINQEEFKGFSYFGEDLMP
The data set is described as follows: Radiometric kinase assay. It counts as biochemical. Here is the method: as §1

Another data set deals with T4, Chk1 (Homo sapiens, UniProt O14757).
T4 construct: GST (N); purchased Upstate Biotechnology
T4 sequence (O14757 whole entry): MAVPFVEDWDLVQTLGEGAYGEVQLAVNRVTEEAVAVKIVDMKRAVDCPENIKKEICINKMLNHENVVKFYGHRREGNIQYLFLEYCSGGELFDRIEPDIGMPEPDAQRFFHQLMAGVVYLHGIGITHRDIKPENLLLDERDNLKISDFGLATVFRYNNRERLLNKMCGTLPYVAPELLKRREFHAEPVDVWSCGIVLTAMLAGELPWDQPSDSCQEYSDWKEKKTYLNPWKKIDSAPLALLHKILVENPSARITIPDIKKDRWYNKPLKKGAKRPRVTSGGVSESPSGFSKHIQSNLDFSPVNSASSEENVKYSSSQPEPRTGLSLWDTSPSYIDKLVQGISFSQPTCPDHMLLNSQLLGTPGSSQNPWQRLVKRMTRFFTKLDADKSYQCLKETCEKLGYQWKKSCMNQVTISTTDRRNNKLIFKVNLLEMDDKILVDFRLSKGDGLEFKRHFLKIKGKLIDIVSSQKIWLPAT
Briefly: Radiometric kinase assay. It counts as biochemical. Here is the method:
as §1

For another data set, the target named is T5, Chk2 (Homo sapiens, UniProt O96017).
T5 construct: Human, 5-543, N-; GST (N); His (C); purchased Upstate Biotechnology
T5 sequence (O96017 5-543): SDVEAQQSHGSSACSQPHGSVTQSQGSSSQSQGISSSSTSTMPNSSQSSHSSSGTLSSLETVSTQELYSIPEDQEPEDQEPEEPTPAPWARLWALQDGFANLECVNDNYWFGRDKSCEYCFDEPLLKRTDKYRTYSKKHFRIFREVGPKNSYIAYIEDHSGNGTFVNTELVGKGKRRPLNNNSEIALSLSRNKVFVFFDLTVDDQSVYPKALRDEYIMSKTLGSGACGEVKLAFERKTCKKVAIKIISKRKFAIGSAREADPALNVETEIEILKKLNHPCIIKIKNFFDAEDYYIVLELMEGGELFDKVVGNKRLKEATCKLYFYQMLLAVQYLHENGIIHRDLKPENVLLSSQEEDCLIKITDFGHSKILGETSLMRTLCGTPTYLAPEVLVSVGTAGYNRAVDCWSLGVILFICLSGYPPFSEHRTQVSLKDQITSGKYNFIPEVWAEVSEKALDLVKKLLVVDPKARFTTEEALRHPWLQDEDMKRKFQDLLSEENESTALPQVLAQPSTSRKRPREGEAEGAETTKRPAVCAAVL
The data set is described as follows: Radiometric kinase assay. It counts as biochemical. Here is the method: as §1

For data set [1] the following is noted: human.

The structures appear in SMILES notation. A value given as a limit tells only on which side of the number the result lay.

Sequence of KDR (P35968 20-1356, species assumed): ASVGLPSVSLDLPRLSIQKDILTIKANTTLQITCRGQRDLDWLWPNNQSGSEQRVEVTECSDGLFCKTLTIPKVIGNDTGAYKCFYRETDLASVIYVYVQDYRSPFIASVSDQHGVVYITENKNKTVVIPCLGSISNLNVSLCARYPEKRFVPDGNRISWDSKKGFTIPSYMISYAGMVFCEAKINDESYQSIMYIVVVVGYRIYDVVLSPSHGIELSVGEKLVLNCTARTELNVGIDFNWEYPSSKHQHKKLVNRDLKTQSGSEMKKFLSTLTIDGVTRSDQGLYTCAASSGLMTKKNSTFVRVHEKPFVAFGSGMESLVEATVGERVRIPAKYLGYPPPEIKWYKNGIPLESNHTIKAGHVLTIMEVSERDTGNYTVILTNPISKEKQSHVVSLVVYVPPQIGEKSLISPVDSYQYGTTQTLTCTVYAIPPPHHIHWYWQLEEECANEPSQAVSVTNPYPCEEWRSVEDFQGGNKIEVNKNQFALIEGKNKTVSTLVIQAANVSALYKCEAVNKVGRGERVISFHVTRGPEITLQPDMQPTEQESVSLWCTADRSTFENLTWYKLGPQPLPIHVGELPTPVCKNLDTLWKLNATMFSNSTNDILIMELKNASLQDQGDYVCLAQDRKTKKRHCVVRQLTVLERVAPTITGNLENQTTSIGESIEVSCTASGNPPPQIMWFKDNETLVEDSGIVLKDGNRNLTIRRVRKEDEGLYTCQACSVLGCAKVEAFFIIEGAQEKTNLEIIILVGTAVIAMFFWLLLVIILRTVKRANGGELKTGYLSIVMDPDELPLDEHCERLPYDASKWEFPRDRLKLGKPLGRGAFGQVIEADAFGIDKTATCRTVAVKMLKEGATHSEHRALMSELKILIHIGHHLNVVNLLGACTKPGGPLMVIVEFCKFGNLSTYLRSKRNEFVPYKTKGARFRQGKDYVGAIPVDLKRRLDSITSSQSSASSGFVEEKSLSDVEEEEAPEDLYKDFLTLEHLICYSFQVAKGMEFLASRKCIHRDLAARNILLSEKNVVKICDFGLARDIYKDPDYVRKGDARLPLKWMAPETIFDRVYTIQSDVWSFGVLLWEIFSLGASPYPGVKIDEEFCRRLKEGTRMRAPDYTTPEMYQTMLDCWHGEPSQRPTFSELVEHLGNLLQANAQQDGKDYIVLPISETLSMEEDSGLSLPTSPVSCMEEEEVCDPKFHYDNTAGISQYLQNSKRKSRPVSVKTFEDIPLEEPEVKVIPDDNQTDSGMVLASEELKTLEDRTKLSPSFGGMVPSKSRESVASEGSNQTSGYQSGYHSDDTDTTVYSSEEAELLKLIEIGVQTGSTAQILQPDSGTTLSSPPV
T1 sequence (P35367 whole entry): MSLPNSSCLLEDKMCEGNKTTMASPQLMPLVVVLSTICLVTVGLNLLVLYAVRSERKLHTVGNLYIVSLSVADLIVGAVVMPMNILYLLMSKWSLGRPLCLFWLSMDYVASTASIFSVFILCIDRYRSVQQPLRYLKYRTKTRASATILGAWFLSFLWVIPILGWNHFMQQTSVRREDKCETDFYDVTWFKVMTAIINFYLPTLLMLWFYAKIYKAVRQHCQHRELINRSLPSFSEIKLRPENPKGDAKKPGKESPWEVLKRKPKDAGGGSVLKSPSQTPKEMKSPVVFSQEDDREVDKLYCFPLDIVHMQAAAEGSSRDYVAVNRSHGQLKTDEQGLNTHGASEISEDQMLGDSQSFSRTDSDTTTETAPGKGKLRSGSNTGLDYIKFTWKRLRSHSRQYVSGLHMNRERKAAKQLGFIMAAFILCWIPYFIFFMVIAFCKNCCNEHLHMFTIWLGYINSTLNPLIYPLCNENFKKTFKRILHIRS

For the molecule `COc1cc2c(Nc3ccc(Cl)c(Cl)c3F)ncnc2cc1OC[C@@H]1C[C@@H]2CN(C)C[C@@H]2C1` [XL-647, N-(3,4-dichloro-2-fluorophenyl)-7-({[(3aR,5r,6aS)-2-methyloctahydrocyclopenta[c]pyrrol-5-yl]methyl}oxy)-6-(methyloxy)quinazolin-4-amine], the IC50 at KDR was 0.137 µM; against Plk1, greater than 1 µM; against PKC-ε, greater than 10 µM; against Chk1, greater than 10 µM; on Chk2, greater than 10 µM. For the same molecule, the inhibition at 10 µM at Histamine, H1 turned out to be 59.8%. For the same molecule, the protein bound in data set [1] is 93-99%.

As usually defined, the IC50 is the midpoint of a concentration-inhibition curve. As usually defined, the inhibition is the drop in the measured response relative to a control, in per cent.
